Results taken from ChEMBL document CHEMBL3886212, “Disubstituted 3,4-diamino-3-cyclobutene-1,2-dione compounds for use in the treatment of chemokine-mediated diseases” (2015).

Assays:
[1] = target: T1, C-X-C chemokine receptor type 2 (Homo sapiens, UniProt P25025); assay: (§1) Assay Drug Dev Technol. 2007 February; 5(1); 137-44).; assay type: cell-based
T1 sequence (P25025 whole entry): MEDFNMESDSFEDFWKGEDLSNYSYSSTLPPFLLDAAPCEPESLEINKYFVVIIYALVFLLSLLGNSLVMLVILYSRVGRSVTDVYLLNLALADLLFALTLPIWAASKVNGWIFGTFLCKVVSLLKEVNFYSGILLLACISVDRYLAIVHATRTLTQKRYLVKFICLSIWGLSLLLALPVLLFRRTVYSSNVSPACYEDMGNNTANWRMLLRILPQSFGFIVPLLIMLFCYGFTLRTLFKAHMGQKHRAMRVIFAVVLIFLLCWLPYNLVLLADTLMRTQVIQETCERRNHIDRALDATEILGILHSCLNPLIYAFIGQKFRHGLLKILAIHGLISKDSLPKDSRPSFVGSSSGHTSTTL

[2] = target: T2, C-X-C chemokine receptor type 1 (Homo sapiens, UniProt P25024); assay: as §1; assay type: cell-based
T2 sequence (P25024 whole entry): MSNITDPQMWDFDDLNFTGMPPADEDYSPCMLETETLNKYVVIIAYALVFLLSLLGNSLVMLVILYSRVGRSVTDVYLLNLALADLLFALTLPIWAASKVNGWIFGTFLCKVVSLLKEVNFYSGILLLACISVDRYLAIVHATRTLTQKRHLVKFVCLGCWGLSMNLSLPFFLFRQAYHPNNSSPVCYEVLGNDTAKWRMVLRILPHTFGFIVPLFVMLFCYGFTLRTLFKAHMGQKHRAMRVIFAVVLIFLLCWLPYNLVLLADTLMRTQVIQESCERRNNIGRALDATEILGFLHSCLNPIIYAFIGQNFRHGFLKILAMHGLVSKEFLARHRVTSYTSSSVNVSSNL

With `Cc1ccc(C(Nc2c(Nc3cccc(C(=O)N(C)C)c3O)c(=O)c2=O)C2(C)CCOCC2)o1` (configuration not stated) the IC50 [1] was 0.157 µM and the IC50 [2] was 3.35 µM.
